Marks after values point to notes of the source that are not given here.
Tested on: oxazolone-induced ear swelling
Assay: Oxazolone-induced ear swelling assay (model of allergic contact dermatitis)
Assay type: in vivo, BALB/c mice
Settings: TOP
Description: Groups of 5 BALB/c male mice weighing 22±2 g were used. The animals were sensitized by application of oxazolone (100 μL, 1.5% in acetone) to their preshaved abdominal surface. Seven days later, test substances (20 mg/ear) and vehicle (20 μL/ear) were applied topically to the anterior and posterior surfaces of the right ear 30 min before and 15 min after oxazolone (1%, 20 μL/ear) challenge. Ear swelling was measured with a Dyer model micrometer gauge at 24 hours after oxazolone challenge as an index of inflammation. Ear edema was calculated by subtracting the thickness of the left ear (normal control) from the right ear (treated ear). Percent inhibition was calculated according to the formula: (Ic−It)/Ic×100, where Ic and It refers to increase of ear thickness (mm) in control and treated mice, respectively. One-way ANOVA and Dunnett's test were used to determine statistical significance between vehicle control and treated groups. Significance is set at P<0.05.
Test articles (0.2% and 2% Nitricil™ NVN1 Ointment) described in Example 6 were evaluated for possible anti-inflammatory activity in the oxazolone-induced ear swelling assay in BALB/c mice, a model of allergic contact dermatitis. Test substances and vehicles were each administered topically (TOP) at 30 minutes before and 15 minutes after challenge with the second application of oxazolone.
The test system used was a 7-day oxazolone-induced ear swelling assay. Oxazolone-induced ear swelling is useful as a model of inflammation. […] Ear swelling was measured with a Dyer model micrometer gauge at 24 hours after oxazolone challenge as an index of inflammation. Ear edema was calculated by subtracting the thickness of the left ear (normal control) from the right ear (treated ear) (Table 18). […]
Percent inhibition was calculated according to the formula: (Ic−It)/Ic×100, where Ic and It refer to increase of ear thickness (mm) in control and treated mice, respectively. […]

In the case of C[C@@H]1C[C@H]2[C@@H]3CCC4=CC(=O)C=C[C@]4(C)[C@@]3(F)[C@@H](O)C[C@]2(C)[C@@]1(O)C(=O)CO [Dexamethasone], the “Ear Swelling % Inhibition (vs. Vehicle A, acetone/ethanol 1/1)” value (Example 7 study, ointments 20 mg/ear × 2, dexamethasone 0.3 mg/ear × 2, 24 hours after challenge) is reported as 85* %, the “% inhibition of oxazolone-induced ear swelling vs acetone/ethanol vehicle” value (Example 9 study, ointments 20 mg/ear × 2, dexamethasone 0.1 mg/ear × 2) is reported as 86% and the “Net Swelling on Right Ear (Mean ± SEM)” value (Example 9 study, ointments 20 mg/ear × 2, dexamethasone 0.1 mg/ear × 2, 24 hours after challenge) is reported as 3.2 ± 0.4 × 0.01 mm.

From patent US11077194B2, “Nitric oxide releasing pharmaceutical compositions” (Novan, Inc., priority 2012, dated 2021)
